In patent US5760087A, “Glycylanilide derivatives, their preparation and their application in therapy” (Pierre Fabre Medicament, priority 1995, dated 1998):

Columns and labels:
plasma cholesterol = assay: Hypocholesterolemic activity in rats on hypercholesterolemic diet; assay type: in vivo; conditions: Rattus norvegicus; male rats, oral, 4 days, Altromin C 1061 hypercholesterolemic diet; plasma cholesterol on day 5 after 16 h fast; read-out: ED50 (dose which reduces the plasma cholesterol concentration by half relative to control animals)
Experimental: 2) Hypocholesterolemic Activity
Male rats (160-180 g) are subjected for 4 days to an Altromin C 1061 hypercholesterolemic diet, and concomitantly treated orally with the compounds suspended in carboxymethylcellulose at a concentration of 1%.
On day 5, the animals, fasted for 16 hours, are anesthetized with ethyl ether and exsanguinated by drawing blood at the abdominal aorta onto EDTA.
The blood is immediately centrifuged and the plasma stored at 4° C.
Plasma cholesterol is then assayed by the CHOP-PAP method (Boehringer-Mannheim Ref. 237574).
The median effective dose (ED50) corresponds to the dose which reduces the plasma cholesterol concentration by half relative to control animals.

[1] = test system: hepatic microsomal lipids (rat liver microsomes); assay: Antioxidant activity: chemical peroxidation of rat liver microsomes (T.BARS); assay type: biochemical; conditions: Fe3+/ADP/dihydroxyfumaric acid
Excerpt: In the presence of Fe^3+ and ADP, dihydroxyfumaric acid undergoes an autoxidation which generates oxygen free radicals. The latter bring about the peroxidation of hepatic microsomal lipids.

Human LDL = assay: Antioxidant activity: oxidation of LDL by CuSO4 (T.BARS); assay type: biochemical; conditions: 4.5 μM CuSO4, 6 hours incubation, T.BARS at 532 nm
[2] = target: ACAT (acyl-CoA:cholesterol O-acyltransferase enzyme); assay: Inhibition of ACAT in vitro (technique of H. Chautan et al.); assay type: biochemical; conditions: read-out: IC50 (50% inhibitory concentration), ACAT inhibition
Excerpt: The compounds were studied for their inhibitory effect on ACAT and hypocholesterolemic effect in rats on the one hand and for their antioxidant effect on the other hand.

| SMILES | ED50 (plasma cholesterol) | IC50 [1] | IC50 (Human LDL) | IC50 [2] |
| --- | --- | --- | --- | --- |
| CCCCCCCCCCC(C)(C)C(=O)Nc1c(OC)cc(OC)cc1OC [CI 976, reference compound] | 7.2 mg/kg | > 10000 nM | 100000 nM | – |
| CCCCCCCCCCCCSC(C)C(=O)NCC(=O)Nc1cc(C)c(O)c(C)c1C (centres unmarked) [Compound 1, N-(2-n-dodecylthio)propionamido-2',3',5'-trimethyl-4'-hydroxyglycylanilide] | 1 mg/kg | 3000 nM | 5000 nM | 1200 nM |
| CCCCCCCCCCCCC(C)(C)C(=O)NCC(=O)Nc1cc(C)c(O)c(C)c1C [Compound 2, N-(α,α,-dimethyl)tetradecanamido-2',3',5'-trimethyl-4'-hydroxyglycylanilide] | 3 mg/kg | 500 nM | 1000 nM | 740 nM |
| CCCCCCCCCCCCSC(C)(C)C(=O)N(C)CC(=O)Nc1cc(C)c(O)c(C)c1C [Compound 3, N-methyl-N-(α-n-dodecylthio)isobutyramido-2',3',5'-trimethyl-4'-hydroxyglycylanilide] | < 2.5 mg/kg | 500 nM | 5000 nM | 160 nM |
| CCCCCCCCCCCCSC(C)(C)C(=O)NCC(=O)Nc1cc(C)c(O)c(C)c1C [Compound 5, N-(α-n-dodecylthio)isobutyramido-2',3',5'-trimethyl-4'-hydroxyglycylanilide] | 2.5 mg/kg | 300 nM | 3000 nM | 620 nM |
| CCCCCCCCCCCCSC(C)C(=O)N(C)CC(=O)Nc1cc(C)c(O)c(C)c1C (stereo not drawn) [Compound 8, N-methyl-N-(α-n-dodecylthio)propionamido-2',3',5'-trimethyl-4'-hydroxyglycylanilide] | 4 mg/kg | 500 nM | 3000 nM | 280 nM |
| CCCCCCCN(CCCCCSc1nc(-c2ccccc2)c(-c2ccccc2)[nH]1)C(=O)Nc1ccc(F)cc1F [DUP 128, reference compound] | 1.4 mg/kg | > 10000 nM | 30000 nM | – |
